What was measured:
[1] = system: Colon adenocarcinoma 38 (mouse colon adenocarcinoma); assay: Tumor weight of transplanted Colon adenocarcinoma 38 in C57BL/6 mice; format: in vivo; settings: for tumor growth inhibiting effect, same experiment as Experimental Example 19: used in place of 5-FU in combination with FGF; for antitumor effect of (a) + (b) (quantity not headed; method of Experimental Example 4): Table 21
Description: Colon adenocarcinoma 38 (mouse colon adenocarcinoma) was minced into pieces and about 0.1 to 0.2 ml thereof was transplanted subcutaneously on the right side of mouse abdomen by a cell transplanting needle (trocker). Eleven days after transplantation, the size of tumor, namely longer diameter (a mm) and shorter diameter (b mm) of tumor were measured and the tumor weight was calculated according to the formula shown below [Instruction 14 (NCI) 1980].
Tumor weight (mg)=ab^2 /2
In the Table, days indicate the experimental days with the day of compound administration being as the day 1, and the tumor weight immediately before administration of compound of day 1 is made 100. The respective values show the average value ± standard error of case numbers of 10 to 20, in the Table, the marks of (*), * and *** indicate the statistical significance difference of the combined administration group relative to the 5-FU single administration group (the definition of P is as defined above).

[2] = system: mouse ovarian tumor M5076; assay: Tumor weight of solid tumor of mouse ovarian tumor in BDF1 mice; format: in vivo; settings: for Tumor weight (day 1 = 100): Table 9, cisplatin 5 mg/Kg, hEGF, [Leu^21 ]-hEGF or hEGF-II 100 μg/Kg subcutaneous, average ± standard error
Description: BDF1 male mice were employed. The feeding conditions were the same as in Experimental Example 1.
Mouse ovarian tumor M5076 was transplanted subcutaneously at the axialla of mouse in 1-2×10^6 cells per mouse. 12 days after transplantation, the size of tumor was measured according to the same method as in Experimental Example 1 (Colon 26) and the tumor weight was calculated.
The grouping operation on initiation of Experiments was conducted in the same manner as in Experimental Example 1. The compounds were administered in the same manner as in Experimental Example 9.
The experiment was carried out in the samme manner as in Experimental Examples 1, 7 and as in Experimental Example 17 for others.

[3] = Table 12, day 4 after compound administration, weight before administration = 100, Tegafur 400, 5-FU 150, Mitomycin-C 5, Cisplatin 5 mg/Kg, hIGF-II 50 μg/Kg subcutaneous, average ± standard error of 8-10 mice
[4] = Table 13, same method as Experimental Example 20 (day 4), Tegafur 400, Mitomycin-C 5, Adriamycin 10, Cisplatin 5 mg/Kg, Insulin 50 m μg/Kg subcutaneous
[5] = Table 14, hTGFα 100 μg/10 ml/Kg with 5-FU, Tegafur, Mitomycin-C, Adriamycin or Cisplatin, as described for Table 12
[6] = Table 15, day 4 after compound administration, hTGFβ and hEGF 100 μg/Kg with each compound having antitumor action
[7] = (a) Adriamycin, Mixed injection
[8] = (a) Adriamycin, Separate injection
[9] = (a) Cisplatin, Separate injection
[10] = (a) Tegafur, Separate injection

## N.N.[Cl][Pt][Cl] [Cisplatin, cisplatin]
[1]; [3]
  Tumor weight ratio(%): 145.6 ± 9.1%
[1]; [4]
  Tumor weight ratio(%): 145.6 ± 9.1%
[1]; [5]
  Tumor weight ratio(%): 145.6 ± 9.1%
[1]; [6]
  Tumor weight ratio(%): 139.8 ± 9.9%
[1]
  tumor growth inhibiting effect, same experiment as Experimental Example 19: the same results
[2]; day 2
  Tumor weight (day 1 = 100): 126.4 ± 9.0
[2]; day 3
  Tumor weight (day 1 = 100): 125.49 ± 8.3
[2]; day 4
  Tumor weight (day 1 = 100): 136.9 ± 5.2
[2]; day 5
  Tumor weight (day 1 = 100): 143.6 ± 14.5
[2]; day 6
  Tumor weight (day 1 = 100): 192.0 ± 20.6

## O=P1(N(CCCl)CCCl)NCCCO1 (stereo not shown) [Cyclophosphamide, cyclophosphamide]
[1]; Table 7, day 2, cyclophosphamide 200 mg/Kg, hEGF 100 μg/Kg subcutaneous on day 1 and day 3, average ± standard error of 8 mice
  Tumor weight (day 1 = 100): 145.2 ± 18.2
[1]; Table 7, day 3, cyclophosphamide 200 mg/Kg, hEGF 100 μg/Kg subcutaneous on day 1 and day 3, average ± standard error of 8 mice
  Tumor weight (day 1 = 100): 147.6 ± 13.7
[1]; Table 7, day 4, cyclophosphamide 200 mg/Kg, hEGF 100 μg/Kg subcutaneous on day 1 and day 3, average ± standard error of 8 mice
  Tumor weight (day 1 = 100): 102.4 ± 8.6
[1]; Table 7, day 5, cyclophosphamide 200 mg/Kg, hEGF 100 μg/Kg subcutaneous on day 1 and day 3, average ± standard error of 8 mice
  Tumor weight (day 1 = 100): 92.2 ± 5.1
[1]; Table 7, day 6, cyclophosphamide 200 mg/Kg, hEGF 100 μg/Kg subcutaneous on day 1 and day 3, average ± standard error of 8 mice
  Tumor weight (day 1 = 100): 108.5 ± 19.6
[1]; Table 7, day 7, cyclophosphamide 200 mg/Kg, hEGF 100 μg/Kg subcutaneous on day 1 and day 3, average ± standard error of 8 mice
  Tumor weight (day 1 = 100): 110.9 ± 21.3
[1]; [6]
  Tumor weight ratio(%): 90.6 ± 7.6%
[1]
  tumor growth inhibiting effect, same experiment as Experimental Example 19: the same results

## CO[C@@]12[C@H](COC(N)=O)C3=C(C(=O)C(C)=C(N)C3=O)N1C[C@@H]1N[C@@H]12 [MMC, mitomycin C]
[1]; Table 8, day 2, MMC 5 mg/Kg, hEGF, hEGF-II or [Leu^21 ]-hEGF 100 μg/Kg subcutaneous on day 1 and day 5, average ± standard error of 6 mice
  Tumor weight (day 1 = 100): 130.8 ± 8.5
[1]; Table 8, day 3, MMC 5 mg/Kg, hEGF, hEGF-II or [Leu^21 ]-hEGF 100 μg/Kg subcutaneous on day 1 and day 5, average ± standard error of 6 mice
  Tumor weight (day 1 = 100): 106.1 ± 9.4
[1]; Table 8, day 4, MMC 5 mg/Kg, hEGF, hEGF-II or [Leu^21 ]-hEGF 100 μg/Kg subcutaneous on day 1 and day 5, average ± standard error of 6 mice
  Tumor weight (day 1 = 100): 95.8 ± 5.5
[1]; Table 8, day 5, MMC 5 mg/Kg, hEGF, hEGF-II or [Leu^21 ]-hEGF 100 μg/Kg subcutaneous on day 1 and day 5, average ± standard error of 6 mice
  Tumor weight (day 1 = 100): 98.6 ± 3.9
[1]; Table 8, day 6, MMC 5 mg/Kg, hEGF, hEGF-II or [Leu^21 ]-hEGF 100 μg/Kg subcutaneous on day 1 and day 5, average ± standard error of 6 mice
  Tumor weight (day 1 = 100): 160.7 ± 10.9
[1]; Table 8, day 7, MMC 5 mg/Kg, hEGF, hEGF-II or [Leu^21 ]-hEGF 100 μg/Kg subcutaneous on day 1 and day 5, average ± standard error of 6 mice
  Tumor weight (day 1 = 100): 150.8 ± 15.9
[1]; Table 8, day 8, MMC 5 mg/Kg, hEGF, hEGF-II or [Leu^21 ]-hEGF 100 μg/Kg subcutaneous on day 1 and day 5, average ± standard error of 6 mice
  Tumor weight (day 1 = 100): 263.6 ± 30.8
[1]; Table 8, day 9, MMC 5 mg/Kg, hEGF, hEGF-II or [Leu^21 ]-hEGF 100 μg/Kg subcutaneous on day 1 and day 5, average ± standard error of 6 mice
  Tumor weight (day 1 = 100): 308.7 ± 54.0
[1]; [3]
  Tumor weight ratio(%): 95.8 ± 5.5%
[1]; [4]
  Tumor weight ratio(%): 95.8 ± 5.5%
[1]; [5]
  Tumor weight ratio(%): 95.8 ± 5.5%
[1]; [6]
  Tumor weight ratio(%): 101.1 ± 8.3%
[1]
  tumor growth inhibiting effect, same experiment as Experimental Example 19: the same results

## O=c1[nH]c(=O)n(C2CCCO2)cc1F (stereo not shown) [Tegafur, 1-(2-tetrahydrofuryl)-5-fluorouracil]
[1]; Table 6, day 2, Tegafur 400 mg/Kg, hEGF 100 μg/Kg subcutaneous on day 1 and day 4, average ± standard error of 7 mice
  Tumor weight (day 1 = 100): 89.0 ± 10.5
[1]; Table 6, day 3, Tegafur 400 mg/Kg, hEGF 100 μg/Kg subcutaneous on day 1 and day 4, average ± standard error of 7 mice
  Tumor weight (day 1 = 100): 102.1 ± 13.5
[1]; Table 6, day 4, Tegafur 400 mg/Kg, hEGF 100 μg/Kg subcutaneous on day 1 and day 4, average ± standard error of 7 mice
  Tumor weight (day 1 = 100): 105.5 ± 18.4
[1]; Table 6, day 5, Tegafur 400 mg/Kg, hEGF 100 μg/Kg subcutaneous on day 1 and day 4, average ± standard error of 7 mice
  Tumor weight (day 1 = 100): 104.2 ± 22.6
[1]; Table 6, day 6, Tegafur 400 mg/Kg, hEGF 100 μg/Kg subcutaneous on day 1 and day 4, average ± standard error of 7 mice
  Tumor weight (day 1 = 100): 94.5 ± 16.9
[1]; Table 6, day 7, Tegafur 400 mg/Kg, hEGF 100 μg/Kg subcutaneous on day 1 and day 4, average ± standard error of 7 mice
  Tumor weight (day 1 = 100): 131.4 ± 23.3
[1]; Table 6, day 8, Tegafur 400 mg/Kg, hEGF 100 μg/Kg subcutaneous on day 1 and day 4, average ± standard error of 7 mice
  Tumor weight (day 1 = 100): 143.7 ± 20.6
[1]; [3]
  Tumor weight ratio(%): 95.2 ± 15.4%
[1]; [4]
  Tumor weight ratio(%): 95.2 ± 15.4%
[1]; [5]
  Tumor weight ratio(%): 95.2 ± 15.4%
[1]; [6]
  Tumor weight ratio(%): 118.0 ± 9.8%
[1]; Table 16, day 4 after administration, Tegafur in place of 5-FU, FGF as in Experimental Example 19
  Tumor weight ratio(%): 103.1 ± 13.1%
[1]; Table 17, day 4 after compound administration, Tegafur 400 mg/Kg, hEGF, hEGF-II, [Leu^21 ]-hEGF each 100 μg/Kg, RA 30 mg/Kg subcutaneous
  Tumor weight ratio(%): 90.6 ± 11.5%

## Insulin
[1]; [7]
  antitumor effect of (a) + (b) (quantity not headed; method of Experimental Example 4): 110.2
[1]; [8]
  antitumor effect of (a) + (b) (quantity not headed; method of Experimental Example 4): 121.1
[1]; (a) Cisplatin, Mixed injection
  antitumor effect of (a) + (b) (quantity not headed; method of Experimental Example 4): 105.6
[1]; [9]
  antitumor effect of (a) + (b) (quantity not headed; method of Experimental Example 4): 110.3
[1]; (a) Tegafur, Mixed injection
  antitumor effect of (a) + (b) (quantity not headed; method of Experimental Example 4): 58.9
[1]; [10]
  antitumor effect of (a) + (b) (quantity not headed; method of Experimental Example 4): 48.1

## TGFα: human transforming growth factor α
[1]; [7]
  antitumor effect of (a) + (b) (quantity not headed; method of Experimental Example 4): 98.4
[1]; [8]
  antitumor effect of (a) + (b) (quantity not headed; method of Experimental Example 4): 92.6
[1]; (a) Cisplatin, Mixed injection
  antitumor effect of (a) + (b) (quantity not headed; method of Experimental Example 4): 80.4
[1]; [9]
  antitumor effect of (a) + (b) (quantity not headed; method of Experimental Example 4): 80.1
[1]; (a) Tegafur, Mixed injection
  antitumor effect of (a) + (b) (quantity not headed; method of Experimental Example 4): 34.3
[1]; [10]
  antitumor effect of (a) + (b) (quantity not headed; method of Experimental Example 4): 40.6

## [Leu^21 ]-hEGF: derivative of hEGF with the 21st methionine from the N-terminal substituted with leucine (NSDSECPLSHDGYCLHDGVCLYIEALDKYACNCVVGYIGERCQYRDLKWWELR; not fully specified; Epidermal growth factor; UniProt P01133 971-1023, looked up, variant M21L)
[1]; [7]
  antitumor effect of (a) + (b) (quantity not headed; method of Experimental Example 4): 99.6
[1]; [8]
  antitumor effect of (a) + (b) (quantity not headed; method of Experimental Example 4): 97.8
[1]; (a) Cisplatin, Mixed injection
  antitumor effect of (a) + (b) (quantity not headed; method of Experimental Example 4): 90.4
[1]; [9]
  antitumor effect of (a) + (b) (quantity not headed; method of Experimental Example 4): 100.1
[1]; (a) Tegafur, Mixed injection
  antitumor effect of (a) + (b) (quantity not headed; method of Experimental Example 4): 48.1
[1]; [10]
  antitumor effect of (a) + (b) (quantity not headed; method of Experimental Example 4): 50.3
[1]; used in place of hEGF in combination with 5-FU
  tumor cell growth inhibition, same experiment as Experimental Example 4: the same results
[1]; used in place of hEGF in combination with Tegafur
  tumor cell growth inhibition, same experiment as Experimental Example 14: the same results
[1]; used in place of hEGF in combination with cisplatin
  antitumor action potentiating effect, same experiment as Experimental Example 9: the same results
[1]; used in place of hEGF in combination with cyclophosphamide
  tumor cell growth inhibiting effect, same experiment as Experimental Example 15: the same results
[2]; used together with mytomycin C in place of cisplatin
  antitumor effect potentiation, same experiment as Experimental Example 17: the same results

Source: US4863902A, “Treatment of cancer” (Wakunaga Seiyaku Kabushiki Kaisha, priority 1985, dated 1989)
